What was measured:
MOG-induced EAE mice = assay: Efficacy of laquinimod alone or in combination with fingolimod in MOG-induced EAE; format: in vivo, mice (C57BL/6); conditions: for activity according to GMS compared to vehicle control: oral QD; for Duration / Onset / Mortality / GMS value / Incidence: Day 1 to 30; for Mortality: dead or moribund/total mice; for GMS value: group mean clinical score (0-6); for Incidence: sick/total mice
S1PR5 = S1PR5 (Homo sapiens, UniProt Q9H228); conditions: cited from earlier work
Sequence of S1PR5 (Q9H228 whole entry, species assumed): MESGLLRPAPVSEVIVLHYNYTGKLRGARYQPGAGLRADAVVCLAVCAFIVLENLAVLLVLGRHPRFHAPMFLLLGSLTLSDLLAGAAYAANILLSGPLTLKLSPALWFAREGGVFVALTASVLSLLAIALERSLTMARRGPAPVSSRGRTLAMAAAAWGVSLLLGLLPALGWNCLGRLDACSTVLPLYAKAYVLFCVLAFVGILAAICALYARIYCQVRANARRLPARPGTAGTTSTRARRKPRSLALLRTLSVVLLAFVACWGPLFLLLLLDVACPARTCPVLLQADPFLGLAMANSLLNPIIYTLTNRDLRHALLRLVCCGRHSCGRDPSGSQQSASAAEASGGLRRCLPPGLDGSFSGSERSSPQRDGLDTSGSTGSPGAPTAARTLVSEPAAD

S1PR4 = target: T1, S1PR4 (Homo sapiens, UniProt O95977); conditions: cited from earlier work
T1 sequence (O95977 1-384): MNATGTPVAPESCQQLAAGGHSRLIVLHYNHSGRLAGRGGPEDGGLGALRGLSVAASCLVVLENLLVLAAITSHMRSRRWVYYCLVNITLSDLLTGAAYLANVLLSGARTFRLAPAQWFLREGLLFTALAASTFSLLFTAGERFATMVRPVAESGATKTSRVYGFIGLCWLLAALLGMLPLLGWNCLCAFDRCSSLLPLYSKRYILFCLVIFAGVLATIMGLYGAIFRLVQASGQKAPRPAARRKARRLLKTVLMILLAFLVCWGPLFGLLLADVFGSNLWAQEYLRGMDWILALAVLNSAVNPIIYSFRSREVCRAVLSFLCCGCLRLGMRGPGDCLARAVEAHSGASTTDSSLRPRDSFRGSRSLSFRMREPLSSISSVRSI

In the case of CCCCCCCCc1ccc(CCC(N)(CO)CO)cc1 [Fingolimod, 2-amino-2-[2-(4-octylphenyl)ethyl]propane-1,3-diol], the “activity according to GMS compared to vehicle control” value (MOG-induced EAE mice; fingolimod 0.3 mg/kg (sub optimal dose)) is reported as 56.3%, the “effectiveness against EAE (in words)” value (MOG-induced EAE mice; fingolimod 0.3 mg/kg alone) is reported as “moderately effective” and the “Duration” value (MOG-induced EAE mice; fingolimod 0.3 mg/kg oral QD) is reported as 15.0 ± 6.7 days. The “Onset” value (MOG-induced EAE mice; fingolimod 0.3 mg/kg oral QD) was 16.0 ± 6.7 days, the Mortality (MOG-induced EAE mice; fingolimod 0.3 mg/kg oral QD) was 0/15 and the GMS value (MOG-induced EAE mice; fingolimod 0.3 mg/kg oral QD) was 1.4 ± 0.8. For the same compound, the Incidence (MOG-induced EAE mice; fingolimod 0.3 mg/kg oral QD) was 13/15, the “activity according to GMS compared to vehicle control” value (MOG-induced EAE mice; fingolimod 1 mg/kg (optimal dose)) was 81.3% and the “Duration” value (MOG-induced EAE mice; fingolimod 1 mg/kg oral QD) was 7.59 ± 9.1 days. For the same compound, the “Onset” value (MOG-induced EAE mice; fingolimod 1 mg/kg oral QD) was 21.7 ± 9.3 days, the Mortality (MOG-induced EAE mice; fingolimod 1 mg/kg oral QD) was 0/15 and the GMS value (MOG-induced EAE mice; fingolimod 1 mg/kg oral QD) was 0.6 ± 0.8. For the same compound, the Incidence (MOG-induced EAE mice; fingolimod 1 mg/kg oral QD) was 8/15.

In the case of CCCCCCCCc1ccc(CCC(N)(CO)COP(=O)(O)O)cc1 (stereo not shown) [Fingolimod-phosphate], the “binding affinity (in words)” value (S1PR5) is listed as “high affinity” and the “binding affinity (in words)” value (S1PR4) is listed as “high affinity”.

With CCN(C(=O)c1c(O)c2c(Cl)cccc2n(C)c1=O)c1ccccc1 [Laquinimod] the “activity according to GMS compared to vehicle control” value (MOG-induced EAE mice; laquinimod 10 mg/kg (sub optimal dose)) was 53.1%, the “effectiveness against EAE (in words)” value (MOG-induced EAE mice; laquinimod 10 mg/kg alone) was “moderately effective” and the “Duration” value (MOG-induced EAE mice; laquinimod 10 mg/kg oral QD) was 14.1 ± 6.4 days. The “Onset” value (MOG-induced EAE mice; laquinimod 10 mg/kg oral QD) was 17.1 ± 6.3 days, the Mortality (MOG-induced EAE mice; laquinimod 10 mg/kg oral QD) was 0/15 and the GMS value (MOG-induced EAE mice; laquinimod 10 mg/kg oral QD) was 1.5 ± 0.8. The Incidence (MOG-induced EAE mice; laquinimod 10 mg/kg oral QD) was 13/15, the “activity according to GMS compared to vehicle control” value (MOG-induced EAE mice; laquinimod 25 mg/kg (optimal dose)) was 81.1% and the “Duration” value (MOG-induced EAE mice; laquinimod 25 mg/kg oral QD) was 8.1 ± 9.0 days. The “Onset” value (MOG-induced EAE mice; laquinimod 25 mg/kg oral QD) was 22.9 ± 9.0 days, the Mortality (MOG-induced EAE mice; laquinimod 25 mg/kg oral QD) was 0/15 and the GMS value (MOG-induced EAE mice; laquinimod 25 mg/kg oral QD) was 0.6 ± 0.8. The Incidence (MOG-induced EAE mice; laquinimod 25 mg/kg oral QD) was 7/15.

Source: patent US8889627B2 (Teva Pharmaceutical Industries, Ltd., priority 2011, dated 2014)
